We go through four compounds from BindingDB's records for doi:10.1016/0960-894X(96)00057-1 (1996).

Assay [1] in a line: Compound was tested for inhibition of HL60 cell adhesion to recombinant P-selectin-IgG fusion protein obtained from transfected COS cells.
Assay in assay [2]: as above
This is another data set of the same source.

As usually defined, the IC50 is the concentration at which inhibition is half-maximal. In the case of `CC(=O)N[C@H]1[C@H]([C@H](O)[C@H](O)CO)O[C@@](O[C@@H]2[C@H](O)[C@H](O[C@H]3[C@H](O[C@@H]4O[C@@H](C)[C@@H](O)[C@H](O)[C@@H]4O)[C@H](NC(C)=O)[C@H](NC(=O)[C@H](C)NC(=O)[C@H](CC(=O)O)NC(=O)CNC(=O)[C@@H](N)CCCN=C(N)N)O[C@H]3CO)O[C@@H](CO)[C@@H]2O)(C(=O)O)C[C@H]1O`, the IC50 in assay [1] came to 26 µM. For the compound `CC(=O)N[C@@H]1[C@H](OCCCCCCNC(=O)[C@H]2CC[C@H](CN3C(=O)C=CC3=O)CC2)O[C@@H](CO)[C@@H](O[C@@H]2O[C@@H](CO)[C@H](O)[C@H](O[C@]3(C(=O)O)C[C@@H](O)[C@@H](NC(C)=O)[C@H]([C@H](O)[C@H](O)CO)O3)[C@@H]2O)[C@@H]1O[C@@H]1O[C@@H](C)[C@@H](O)[C@H](O)[C@@H]1O` [Sialyl-LewisX Conjugate], the IC50 in assay [2] is 380 µM. `CC(=O)N[C@@H]1[C@H](OCCCCCC/N=C(S)/N=C2\C=CC(=C3c4ccc(O)cc4Oc4cc(O)ccc43)C(C(=O)O)=C2)O[C@@H](CO)[C@@H](O[C@@H]2O[C@@H](CO)[C@H](O)[C@H](O[C@]3(C(=O)O)C[C@@H](O)[C@@H](NC(C)=O)[C@H]([C@H](O)[C@H](O)CO)O3)[C@@H]2O)[C@@H]1O[C@@H]1O[C@@H](C)[C@@H](O)[C@H](O)[C@@H]1O`: the IC50 in assay [1] amounted to 900 µM. Take `CC(=O)N[C@@H]1[C@H](OCCCCCCNC(=O)CCC(=O)O)O[C@@H](CO)[C@@H](O[C@@H]2O[C@@H](CO)[C@H](O)[C@H](O[C@]3(C(=O)O)C[C@@H](O)[C@@H](NC(C)=O)[C@H]([C@H](O)[C@H](O)CO)O3)[C@@H]2O)[C@@H]1O[C@@H]1O[C@@H](C)[C@@H](O)[C@H](O)[C@@H]1O` [Sialyl-LewisX Conjugate]: the IC50 in assay [2] stood at 1500 µM.
